In experiment [1] the test system is 0.1 MCD diet mouse model of NASH. As to the kind of experiment: 0.1% methionine- and choline-deficient (0.1 MCD) diet mouse model of NASH. Conditions: 5 mg/Kg/day orally by gavage, 0.1 MCD-fed mice. The format is in vivo, C57B1/6 mice. An excerpt: The study described below investigates the mechanism of action of Aramchol and its potential effect on fibrosis using the 0.1% methionine- and choline-deficient (0.1 MCD) diet mouse model of NASH.
C57B1/6 were fed the Methionine and Choline Deficient (MCD) and control diet and were sacrificed after 4 weeks. The MCD diet induces aminotransferase elevation and changes in hepatic histological features, characterized by steatosis, local inflammation, hepatocyte necrosis and fibrosis. These changes occur rapidly and are morphologically similar to those observed in human NASH. In this study the MCD diet contained 0.1% methionine to minimize and stabilize weight loss. At the end of the second week, after verification of established NASH, 0.1 MCD-fed mice were treated orally by gavage with Aramchol (5 mg/Kg/day) or vehicle (n=10, each condition). Control diet-fed mice were also treated with vehicle for same duration (n=10). At the end of the experiment, blood and liver samples were obtained. A diagram of the experimental design is shown below: […]

Experiment [2] concerns Thioacetamide (TAA)-Induced Fibrosis. Kind of experiment: Thioacetamide (TAA)-induced fibrosis, model for hepatic cirrhosis. Conditions: 5 mg/kg co-administered with TAA, 10 weeks, Wistar rats. The format is in vivo. As to the method: Liver fibrosis was induces in Wistar rats by intraperitoneal injections of TAA […] body weight) twice per week during 10 weeks. I.p. application of TAA results in hepatic centrolobular necrosis, elevated transaminase activity and robust liver fibrosis. Treatment groups further included co-administration of Aramchol (1 or 5 mg/kg orally) or obaticholic acid (OCA, 5 mg/kg). A control group of saline-treated rats (in the absence of TAA administration) was further included. Rats were then sacrificed, and livers were observed macroscopically for signs of cirrhosis and necrotic lesions, and microscopically, following Masson Goldner staining. The fibrosis score, calculated at a scale of 0-4, was determined for each sample, wherein 0 indicates no fibrosis and 4 indicates advanced fibrosis and cirrhosis.

In experiment [3] the test system is LX-2 human hepatic stellate cells. As to the kind of experiment: Collagen production from LX-2 human hepatic stellate cells. To be noted: LX-2 cells, relative to a DMSO control. The format is cell-based.
In experiment [4] the test system is PPAR-γ. As to the kind of experiment: PPAR-γ expression in LX-2 human hepatic stellate cells. Format: cell-based. To be noted: LX-2 cells, Aramchol 10 mM, 24 hours, RNA. As to the method: (§1) LX2 cells (150.000 cells per well) were plated in DMEM media containing antibiotics, glutamine and bovine fetal serum. After 24 hours incubation, media was changed to 0% serum and incubated for an additional period of 16 hours. Then, Aramchol (10 mM) was added and 24 hours later RNA was extracted with Trizol.

In experiment [5] the test system is COL1A1. As to the kind of experiment: COL1A1 expression in LX-2 human hepatic stellate cells. Format: cell-based. To be noted: LX-2 cells, Aramchol 10 mM, 24 hours, RNA. As to the method: as §1

We go through one compound from patent US20190275061A1, “INHIBITION OF FIBROSIS IN NON ALCOHOL FATTY LIVER DISEASE PATIENTS” (GALMED RESEARCH AND DEVELOPMENT LTD, priority 2016, published 2019).

“Also recorded” adds a separate entry of the source.

On to `CCCCCCCCCCCCCCCCCCCC(=O)N[C@H]1CCC2(C)C(CC(O)C3C2C[C@H](O)C2(C)C(C(C)CCC(=O)O)CCC32)C1` (stereo in doubt) [Aramchol, 3β-arachidylamido-7α, 12α-dihydroxy-5β-cholan-24-oic acid], for which, in experiment [1], the “FA(16:1)/FA(16:0) ratio” value is listed as “marked decrease”, the SCD1 activity result is reported as “reduced”, the SCD1 expression result is recorded as “marked decrease” and the “content of total oxFA including oxLA” value is reported as “marked reduction”. In experiment [1], the “hepatic content of diglycerides (DG) and TG” value is given as “reduction”; the oxidative stress entry is on record as “improved”; the “total content of monounsaturated FA (MUFA)” value is given as “marked decrease”. Besides, in experiment [1] (from end of week 2 to week 4), the “fibrosis in the liver (sirius red)” value is “significantly down regulates/normalizes; also recorded: reduction”; the “infiltration and activation status of macrophages in the liver (F4/80 and CD64)” value is “significantly down regulates/normalizes; also recorded: reduction”; the “steatosis in the liver (Sudan III)” value is “significantly down regulates; also recorded: reduction”. Further, in experiment [1] (liver), the GSH/GSSG ratio entry was “elevates; also recorded: normalization” and the glutathione entry was “significantly up regulates”. In addition, the “collagen in the liver” value in experiment [1] (liver extract) was “significantly down regulates”. Further, in experiment [2], the TAA induced fibrosis entry is listed as “significantly prevented; also recorded: significantly inhibited”; the “collagen distribution in the tissue (FIG. 2)” value is reported as “reduced significantly”; the “development of necrosis and cirrhosis (macroscopic, FIG. 1)” value is reported as “reduced significantly; also recorded: significantly inhibited”; the “fibrotic score (Masson Goldner staining, scale 0-4, FIG. 2)” value was “reduced significantly”. The collagen production result in experiment [3] was “significantly down regulates”. Besides, the PPARγ expression entry in experiment [4] is recorded as “up-regulation”. For the same compound, in experiment [5], the COL1A1 expression entry was “significantly reduced”.
